Each structure is given as a SMILES string. Read-outs that look alike come from different tables or passages of the source.

Assay [1] has as its system 3β-hydroxysterol synthesis. Description: Test B. In Vivo Cholesterol Biosynthesis Inhibition Test. Particulars: Rattus norvegicus, po; rats, orally administered; read-out: ED50 (dose producing 50% inhibition of 3β-hydroxysterol synthesis).
Description: Test B. In Vivo Cholesterol Biosynthesis Inhibition Test:
In this test the rats are orally administered the test substance (compound of Formula I) at a dose of 0.1-200 mg/kg. body weight. The obtained ED50 is the dose of the test substance observed or calculated to produce a 50% inhibition of 3β-hydroxysterol synthesis.
Assay [2] concerns the target T1, HMG-CoA reductase (Rattus norvegicus, UniProt P51639).
T1 construct: from tissue; host or cells: microsomes (printed)
T1 sequence (P51639 1-887): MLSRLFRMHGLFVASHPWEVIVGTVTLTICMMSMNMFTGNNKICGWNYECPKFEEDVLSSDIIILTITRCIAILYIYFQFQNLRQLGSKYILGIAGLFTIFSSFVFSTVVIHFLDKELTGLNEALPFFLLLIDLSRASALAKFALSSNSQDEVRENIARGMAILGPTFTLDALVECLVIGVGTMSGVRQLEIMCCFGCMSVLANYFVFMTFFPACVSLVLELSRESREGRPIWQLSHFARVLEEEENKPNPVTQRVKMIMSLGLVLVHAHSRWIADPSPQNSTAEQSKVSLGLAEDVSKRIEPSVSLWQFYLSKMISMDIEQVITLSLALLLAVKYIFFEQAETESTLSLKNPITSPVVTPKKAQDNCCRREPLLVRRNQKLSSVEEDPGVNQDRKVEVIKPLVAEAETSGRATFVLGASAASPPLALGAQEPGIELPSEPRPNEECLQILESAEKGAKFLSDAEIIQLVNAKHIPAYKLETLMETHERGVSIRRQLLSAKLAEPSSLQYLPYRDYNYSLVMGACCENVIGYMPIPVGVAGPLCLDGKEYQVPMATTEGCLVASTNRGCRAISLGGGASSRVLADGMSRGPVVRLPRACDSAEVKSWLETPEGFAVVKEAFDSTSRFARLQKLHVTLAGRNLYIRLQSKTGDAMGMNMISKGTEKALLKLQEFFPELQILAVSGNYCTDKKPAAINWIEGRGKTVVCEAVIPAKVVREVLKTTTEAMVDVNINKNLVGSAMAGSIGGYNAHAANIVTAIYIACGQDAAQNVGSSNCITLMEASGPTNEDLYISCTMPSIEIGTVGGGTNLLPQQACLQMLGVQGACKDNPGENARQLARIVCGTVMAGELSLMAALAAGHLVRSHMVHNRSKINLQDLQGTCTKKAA
Description: Test A. In Vitro Microsomal Assay of HMG-CoA Reductase Inhibition. Type of assay: biochemical. The procedure: Test A. In Vitro Microsomal Assay of HMG-CoA Reductase Inhibition:
This test is carried out precisely as described in column 53 of U.S. Pat. No. 4,613,610 and on page 30 of World (PCT) Published Patent Application No. 84/02131, both of which are hereby incorporated by reference as if set forth herein in their entirety. The concentration of the test substance (compound of Formula I) in the assay system is 0.0005-2,000 μmolar. The obtained IC50 is the concentration of the test substance in the assay system observed or calculated to produce a 50% inhibition of HMG-CoA reductase activity.

Where [3] appears, read: in vitro microsomal assay, read-out: IC50 (concentration producing 50% inhibition of HMG-CoA reductase activity).

For orientation: ED50 means the dose that gives a 50% effect, or the effect in half of the subjects. For `CC(C)c1cc(-c2ccccc2)n(-c2ccc(F)cc2)c1/C=C/[C@@H](O)C[C@@H](O)CC(=O)O` (relative stereo) [Example 2, Sodium (±)-erythro-(E)-3,5-dihydroxy-7-[1'-(4"-fluorophenyl)-3'-(1"-methylethyl)-5'-phenyl-1H-pyrrol-2'-yl]hept-6-enoate], the ED50 in assay [1] turned out to be 0.53 mg/kg. In addition, the IC50 in assay [2] (setting [3]) amounted to 14 nM. For `CC[C@H](C)C(=O)O[C@H]1CCC=C2C=C[C@H](C)[C@H](CC[C@@H]3C[C@@H](O)CC(=O)O3)[C@H]21` [Compactin], the IC50 in assay [2] (setting [3]) came out at 1100 nM. The compound `CC[C@H](C)C(=O)O[C@H]1C[C@@H](C)C=C2C=C[C@H](C)[C@H](CC[C@@H]3C[C@@H](O)CC(=O)O3)[C@H]21` [Mevinolin] showed an IC50 in assay [2] of 720 nM.
